Consider 3 compounds from patent US20240091220A1, “METHODS OF MODULATING NEURONAL AND OLIGODENDROCYTE SURVIVAL” (priority 2021, published 2024).

The subject of series [1] is reactive ACM-mediated toxicity. The conditions noted are these: previous data, Liddelow et al. 2017; cited from earlier work.
Series [2] has as its system oligodendrocytes. The experiment in a line: Oligodendrocyte live/dead survival with ethoxyquin, with or without reactive ACM. The format is cell-based, rat. Conditions: for Slope of simple linear regression of oligodendrocyte survival on ethoxyquin dose: increasing doses of ethoxyquin in DMSO. On the procedure:
For collection of astrocyte conditioned media, plates of astrocyte cultures from identical preps were randomly chosen as control or reactive. Reactive astrocyte cultures were treated for 24 hours with IL1α (3 ng/ml, Sigma, 13901), TNF (30 ng/ml, Cell Signaling Technology, 8902SF), and C1q (400 ng/ml, MyBioSource, MBS143105). Control and reactive astrocyte conditioned media (ACM) was collected and spun at ˜2000 g for 5 minutes to remove any dead cells or cell debris. ACM was then concentrated in a Vivaspin 30 kDa centrifugation tubes (Cytiva 28932361) to ˜10× concentration for subsequent experiments. The protein concentration of ACM was determined by Bradford Assay (Sigma-B6916) and used to ensure identical concentrations of reactive versus control ACM were used for further experiments. ACM was presented at a dose of 50 μg/ml in all experiments not otherwise denoted with an alternative concentration.
Z1 (Zeiss) or on an Incucyte ZOOM (Essen Bioscience).

Series [3] deals with oligodendrocytes. Conditions: dose curve, live/dead analysis 24 hours after treatment.
Description: Oligodendrocytes: Oligodendrocyte lineage cells were purified by immunopanning from P6 Sprague-Dawley forebrains and cultured as previously described (Dugas and Emery, “Purification of Oligodendrocyte Precursor Cells from Rat Cortices by Immunopanning,” Cold Spring Harbor Protocols 2013(8):745-758 (2013), which is hereby incorporated by reference in its entirety). Cortices were blunt dissected and enzymatically digested using papain at 37° C. and 10% CO2. Tissue was then mechanically triturated with a 5 mL serological pipette at room temperature to generate a single-cell suspension. […]
All experiments began with identically plated cells that were randomly chosen for treatment, ensuring identical starting cell numbers for control and experimental conditions. […] Identical acquisition and illumination conditions were used within each experiment and cells were counted in ImageJ using custom macros, which involved background subtraction and thresholding following by particle counting. […]

“Also recorded” adds a separate entry of the source.

Turning to `CCOC(=O)c1ccc(NC2CCCCC2)c(N)c1` [Ferrostatin-1], the “Effect on reactive ACM-mediated (astrocyte) toxicity” value in series [1] was “does not affect; also recorded: has no effect”.

For the compound `CCOc1ccc2c(c1)C(C)=CC(C)(C)N2` [ethoxyquin], the “Slope of simple linear regression of oligodendrocyte survival on ethoxyquin dose” value in the series with oligodendrocytes [2] (with 30 μg/ml reactive ACM) is −0.000001788. For the same compound, in the series on oligodendrocytes [2] (without reactive ACM), the “Slope of simple linear regression of oligodendrocyte survival on ethoxyquin dose” value is −0.0000025 and the “Effect on oligodendrocyte survival when treated in isolation” value is reported as “did not impact cell survival”. The “Effect on toxicity of reactive ACM to oligodendrocytes” value with oligodendrocytes [2] (with reactive ACM) is listed as “had no effect; also recorded: did not impact the toxicity of reactive ACM”.

As for `CCCCCCCCCCCCCCCCCCCC(=O)OC[C@H](COP(=O)([O-])OCC[N+](C)(C)C)OC(=O)CCCCCCCCCCCCCCCCCCC` [phosphatidylcholines (20:0)], the “Toxicity to oligodendrocytes (survival)” value in the series with oligodendrocytes [3] is “toxic to oligodendrocytes in a dose-dependent fashion”.
